# Results published in US7790172B2, “Methods for reducing nasopharyngeal colonization of non-typable Haemophilus influenzae with synthetic chimeric fimbrin peptides” (priority 1995, dated 2010).
# Peptide text beside a SMILES is read from it.
# T1: NTHi #1128 fimbrial protein (Haemophilus influenzae, UniProt P45996)
# T1 construct: isolated, reassembled, homologous fimbrial protein from NTHi; endogenous in cells; host or cells: NTHi strain #1128 (protein isolated from the bacterial outer membrane)
# T1 sequence (P45996 22-359): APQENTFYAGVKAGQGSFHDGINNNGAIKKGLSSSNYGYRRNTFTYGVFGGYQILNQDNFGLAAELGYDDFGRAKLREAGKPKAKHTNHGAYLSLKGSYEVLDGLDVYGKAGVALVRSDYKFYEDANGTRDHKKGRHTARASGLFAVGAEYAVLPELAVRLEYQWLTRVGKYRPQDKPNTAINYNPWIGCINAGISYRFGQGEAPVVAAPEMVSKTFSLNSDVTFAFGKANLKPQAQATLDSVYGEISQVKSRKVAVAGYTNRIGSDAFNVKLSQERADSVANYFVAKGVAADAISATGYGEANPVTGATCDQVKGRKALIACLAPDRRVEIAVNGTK
# T2: NTHi #1128 isolated fimbrin protein (25 and 37 kDa species) (Haemophilus influenzae, UniProt P45996)
# T2 construct: isolated, reassembled, homologous fimbrial protein from NTHi; endogenous in cells; host or cells: NTHi strain #1128 (protein isolated from the bacterial outer membrane)
# T2 sequence (P45996 22-359): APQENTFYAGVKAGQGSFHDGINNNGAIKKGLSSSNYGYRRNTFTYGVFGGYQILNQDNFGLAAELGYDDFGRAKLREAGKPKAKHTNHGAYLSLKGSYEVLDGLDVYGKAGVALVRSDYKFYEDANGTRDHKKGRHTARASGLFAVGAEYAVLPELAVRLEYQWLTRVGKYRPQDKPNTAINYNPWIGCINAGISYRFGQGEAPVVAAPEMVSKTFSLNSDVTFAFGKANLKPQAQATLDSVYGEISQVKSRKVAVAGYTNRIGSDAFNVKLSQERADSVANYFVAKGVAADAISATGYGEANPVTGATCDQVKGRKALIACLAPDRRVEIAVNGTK
# Columns and labels:
# NTHi strain 1128 = assay: Nasopharyngeal colonization by NTHi in immunized chinchillas (nasopharyngeal lavage); type: in vivo, chinchilla
# Description: Nasopharyngeal colonization by NTHi was/were examined in two separate trials, study A and study B.
# In study A, five cohorts of four chinchillas each were actively immunized with one of the following preparations: in complete Freund's adjuvant or a saline control preparation; 100 μg of the synthetic chimeric fimbrin peptide LB1, 100 μg of a total outer membrane protein preparation from strain #1128; 100 μg of the synthetic chimeric fimbrin peptide LB2; 10 μg isolated fimbrin protein preparation from strain #1128. The total outer membrane preparation and fimbrin were assessed for endotoxin content prior to their use as an immunogen via a chromogenic Amoebocyte Lysate assay which is commercially available from Whittaker Bioproducts under the designation QCL-1000. The preparations were subcutaneously injected into the chinchillas.
# Then 30 days later the animals received a booster of one-half of the initial dosage of the same immunogen but in incomplete Freund's adjuvant. Ten days later they received 6×10^6 TCID50 adenovirus intranasally. Thereafter, these five cohorts were divided into two groups each and challenged intranasally, about 5×10^7cfu of NTHi strain 1128. The chinchillas were subject to nasopharyngeal lavage over a 21 day period, and the lavage fluid was examined and quantified for NTHi. The NTHi concentration was determined by plating on selective media. The NTHi lavage fluid concentration was plotted over time.
# Again, the NTHi lavage fluid concentration was plotted over time.
# [1] = tested on: native fimbriae of whole, unfixed NTHi strain #1128; assay: Indirect immunogold labeling of unfixed NTHi with chinchilla antiserum (transmission electron micrograph); type: binding, non-typable Haemophilus influenzae
# Excerpt: FIG. 3 is a transmission electron micrograph of two unfixed NTHi strain #1128 cells, shown at bottom of the Figure, which were indirectly immuno-labeled with chinchilla anti-LB1IFA serum and 10 nm gold-chimeric Protein A.
# Two unfixed NTHi strain #1128 cells were indirectly immunolabeled with chinchilla anti-LB1IFA serum and 10 nm gold-chimeric Protein A. The preparation was subjected to stable, low-angle shadow casting with platinum and palladium to impart a sense of height to low-profile fimbriae.
# [2] = biological target: T1, NTHi #1128 fimbrial protein; type: in vivo, non-typable Haemophilus influenzae; details: chinchilla sera 2 weeks after second dose; ELISA
# Description: (§1) The chinchillas received a second dose of 50 μg of either the LB1 or LB2 in incomplete Freund's adjuvant 30 days later. Sera was obtained 2 weeks after the second dose.
# [3] = tested on: fimbrin from NTHi #1128 and NTHi #86-028NP; assay: Western immunoblot of chinchilla antisera; type: binding, non-typable Haemophilus influenzae; details: for Western immunoblot recognition by antisera of heterologous fimbrin: NTHi #86-028NP; for Western immunoblot recognition by antisera of homologous fimbrin / peptides: NTHi #1128 OMP preparation, isolated fimbrin, LB1, LB2
# Excerpt: FIG. 2A is a western immunoblot of chinchilla anti-LB1 antisera. Lane a contains a mixture of sera and NTHi #1128 enriched OMP preparation. Lane b contains a mixture of sera and isolated fimbrin from NTHi #1128. Lane c contains a mixture of sera and LB1. Lane d contains a mixture of sera and LB2. Lane e contains a mixture of sera and NTHi #86-028NP enriched OMP preparation. Lane f contains a mixture of sera and isolated fimbrin from NTHi #86-028NP. The lane marked “Std” contains pre-stained molecular mass markers; mass in kDa is given along left side of immunoblot.
# FIG. 2B is a western immunoblot of chinchilla anti-LB2 antisera. Lane a contains a mixture of sera and NTHi #1128 enriched OMP preparation. Lane b contains a mixture of sera and isolated fimbrin from NTHi #1128. Lane c contains a mixture of sera and LB1. Lane D contains a mixture of sera and LB2. Lane e contains a mixture of sera and NTHi #86-028NP enriched OMP preparation. Lane f contains a mixture of sera and isolated fimbrin from NTHi #86-028NP. The lane marked “Std” contains pre-stained molecular mass markers; mass in kDa is given along left side of immunoblot.
# FIG. 2C is a western immunoblot of chinchilla anti-fimbrial protein antisera. Lane a contains a mixture of sera and NTHi #1128 enriched OMP preparation. Lane b contains a mixture of sera and isolated fimbrin from NTHi #1128. Lane c contains a mixture of sera and LB1. Lane d contains a mixture of sera and LB2. Lane e contains a mixture of sera and NTHi #86-028NP enriched OMP preparation. Lane f contains a mixture of sera and isolated fimbrin from NTHi #86-028NP. The lane marked “Std” contains pre-stained molecular mass markers; mass in kDa is given along left side of immunoblot.
# as §1
# [4] = tested on: antibodies in sera directed to NTHi; assay: Anti-serum ELISA using synthetic chimeric fimbrin peptides as coating antigen; type: binding; details: peptide as ELISA antigen, chinchilla sera
# Description: An anti-serum Elisa was performed by first coating an immulon 1, flat bottom plate containing 96 wells with varied concentrations of LB1 and LB2 according to the dilute checkerboard assay method. The LB1 and LB2 were diluted first in carbonate-bicarbonate buffer at pH 9.6. This coating buffer contained 1.59 g/L NaCO3, 2.93 g/L NaHCO3 at a pH of 9.6. 50 μl of the LB1 or LB2 were added for each well and incubated at 4° C. overnight. After the overnight incubation, the liquid was emptied from the plates and 100 μl per well of 10 mM PBS at pH 7.4 with 0.5% BSA was added, and incubated at 37° C. for 1 hour. Next, the liquid was emptied from the plate and washed three times with 10 mM PBS at pH 7.4 with 0.05% Tween 20 (PBT) at a volume of 250 μl per well. Then the plate was emptied by pounding three times onto paper towels. Next, 50 μl per well of the sera to be assayed was diluted in 10 mM PBS at a pH of 7.4 and added to the plate and incubated at 37° C. for one hour. The liquid was then emptied from the plates and washed three times with 10 mM PBS at pH 7.4 containing 0.05% Tween 20 (PBT) at a volume of 250 μl per well and the plates were pounded three times onto paper towels. Next, 500 μl per well of secondary antibody diluted 1 to 1000 times in PBT was added. Where the sera to be assayed was rabbit, the secondary antibody was HRP chimeric goat anti-rabbit antibody. Where the sera to be assayed was chinchilla sera, then the secondary antibody was HRP protein A. The secondary antibody was incubated at 37° C. for one hour. Next, the liquid was emptied from the plates and washed three times with 10 mM PBS at pH 7.4 containing 0.05% Tween 20. Next, one tablet o-phenylenediamine was suspended in 12 ml citrate phosphate buffer at pH 5.0. The citrate phosphate buffer contained 0.1 M citric acid, 1.0 M Na2HPO4 at pH 5.0. Next 12 μl 30% H2O2 was added to the o-phenylenediamine solution and 100 μl of this mixture was added to each well. The solution was incubated at room temperature in the dark and after 10 minutes, the absorbencies were read at 400 nm. The reaction was stopped at 16 minutes with 100μ per well of 2NH2SO4 and the plates were then read at 490 nm.
# Solubility in water = type: physicochemical
# [5] = biological target: T2, NTHi #1128 isolated fimbrin protein (25 and 37 kDa species); type: binding, non-typable Haemophilus influenzae; details: rabbit antisera; fimbrin isolated from NTHi strain #1128
# Description: Two rabbits were immunized with the LB1 synthetic chimeric fimbrin peptide and two rabbits were immunized with the LB2 synthetic chimeric fimbrin peptide. Rabbits received an initial immunizing dose of 500 μg of either the LB1 or LB2 in complete Freund's adjuvant. The rabbits received a second dose of 400 μg of the synthetic chimeric fimbrin peptide 21 days later. The rabbits received a third dose of synthetic chimeric fimbrin peptide in complete Freund's adjuvant 42 days later with 400 μg of the same peptide in either incomplete Freud's adjuvant (IFA) or phosphate buffered saline (PBS) (one rabbit per diluent). Sera was obtained 3 weeks after each dose. The sera from each animal was assessed for titer and specificity against LB1, LB2 and fimbrial protein, by both ELISA and Western blot.
# NTHi strain #1128 = assay: Inhibition of adherence of NTHi to active ciliated chinchilla tracheal mucosal epithelium; type: cell-based, non-typable Haemophilus influenzae; details: dose dependence, 50 and 100 μg/ml
# Description: LB1 and LB2 were each added to the lumen of excised 15 chinchilla tracheas and incubated for about 1 hour. Next 10^8cFu NTHi/ml were added to the cultures and incubated for about 1 hour. The tracheas were rinsed, homogenized, diluted and plated onto chocolate agar. The NTHi colonies were then counted.
# [6] = study A, chinchillas immunized with 100 μg peptide plus booster, intranasal challenge about 5×10^7 cfu NTHi strain 1128, FIG. 4
# [7] = study B, higher intranasal challenge dose 1.5×10^8 cfu/animal NTHi #1128, FIG. 5
Molecule,NTHi in nasopharyngeal lavage fluid by Day 21 (NTHi strain 1128; [6]),NTHi in nasopharyngeal lavage fluid by Day 21 (NTHi strain 1128; [7]),Recognition of native fimbriae by antiserum (immunogold labeling) [1],Reciprocal Titer of Sera against: NTHi #1128 fimbrial protein [2],Western immunoblot recognition by antisera of heterologous fimbrin [3],Western immunoblot recognition by antisera of homologous fimbrin / peptides [3],Reciprocal Titer ([4]; post infection),Reciprocal Titer ([4]; pre infection),solubility (Solubility in water) [µg/mL],Western blot reactivity of antisera with fimbrin [5],Effect on inhibition of adherence of NTHi strain #1128 to ciliated chinchilla tracheal epithelium (NTHi strain #1128)
CC[C@H](C)[C@H](NC(=O)[C@H](CC(C)C)NC(=O)[C@H](CO)NC(=O)[C@H](CC(C)C)NC(=O)[C@H](CC(C)C)NC(=O)[C@H](CCCCN)NC(=O)[C@H](CC(C)C)NC(=O)[C@H](CO)NC(=O)[C@@H]1CCCN1C(=O)CNC(=O)[C@@H](NC(=O)[C@H](CC(N)=O)NC(=O)[C@@H]1CCCN1C(=O)[C@H](CCCCN)NC(=O)[C@H](CC(=O)O)NC(=O)[C@H](CCC(N)=O)NC(=O)[C@@H]1CCCN1C(=O)[C@H](CCCNC(=N)N)NC(=O)[C@H](Cc1ccc(O)cc1)NC(=O)[C@H](CCCCN)NC(=O)CNC(=O)[C@@H](NC(=O)[C@H](CCCNC(=N)N)NC(=O)[C@@H](NC(=O)[C@H](CC(C)C)NC(=O)[C@H](Cc1c[nH]c2ccccc12)NC(=O)[C@H](CCC(N)=O)NC(=O)[C@@H](N)Cc1ccc(O)cc1)[C@@H](C)O)C(C)C)[C@@H](C)O)C(=O)N[C@@H](CCCCN)C(=O)NCC(=O)N[C@H](C(=O)N[C@H](C(=O)N[C@H](C(=O)N[C@@H](Cc1c[nH]cn1)C(=O)N[C@@H](CCCNC(=N)N)C(=O)N[C@@H](CC(C)C)C(=O)N[C@@H](CCC(=O)O)C(=O)NCC(=O)N[C@H](C(=O)N[C@@H](CCC(=O)O)C(=O)O)C(C)C)C(C)C)[C@@H](C)CC)C(C)C [LB2] (H-YQWLTRVGKYRPQDKPNTGPSLKLLSLIKGVIVHRLEGVE-OH),0,performed less well,Equivalent results,"10,000",recognized heterologous fimbrin contained in the outer membrane preparation,recognized homologous fimbrin,500,≦100,~10000,–,–
CC[C@H](C)[C@H](NC(=O)[C@H](CC(C)C)NC(=O)[C@H](CO)NC(=O)[C@H](CC(C)C)NC(=O)[C@H](CC(C)C)NC(=O)[C@H](CCCCN)NC(=O)[C@H](CC(C)C)NC(=O)[C@H](CO)NC(=O)[C@@H]1CCCN1C(=O)CNC(=O)[C@H](CCCCN)NC(=O)[C@H](CCCCN)NC(=O)[C@H](Cc1c[nH]cn1)NC(=O)[C@H](CC(=O)O)NC(=O)[C@H](CCCNC(=N)N)NC(=O)[C@@H](NC(=O)CNC(=O)[C@H](CC(N)=O)NC(=O)[C@H](C)NC(=O)[C@H](CC(=O)O)NC(=O)[C@H](CCC(=O)O)NC(=O)[C@H](Cc1ccc(O)cc1)NC(=O)[C@H](Cc1ccccc1)NC(=O)[C@H](CCCCN)NC(=O)[C@H](Cc1ccc(O)cc1)NC(=O)[C@H](CC(=O)O)NC(=O)[C@H](CO)NC(=O)[C@@H](N)CCCNC(=N)N)[C@@H](C)O)C(=O)N[C@@H](CCCCN)C(=O)NCC(=O)N[C@H](C(=O)N[C@H](C(=O)N[C@H](C(=O)N[C@@H](Cc1c[nH]cn1)C(=O)N[C@@H](CCCNC(=N)N)C(=O)N[C@@H](CC(C)C)C(=O)N[C@@H](CCC(=O)O)C(=O)NCC(=O)N[C@H](C(=O)N[C@@H](CCC(=O)O)C(=O)O)C(C)C)C(C)C)[C@@H](C)CC)C(C)C [LB1] (H-RSDYKFYEDANGTRDHKKGPSLKLLSLIKGVIVHRLEGVE-OH),0,0,–,"15,000",–,only recognized the LB1,>500,≦100,~10000,sera reactivity to fimbrin (both molecular weight species) occurred only after immunization,dose-dependent effect on inhibition of adherence
"fimbrin: isolated fimbrin protein preparation from NTHi strain #1128, used as comparison immunogen (protein) APQENTFYAGVKAGQGSFHDGINNNGAIKKGLSSSNYGYRRNTFTYGVFGGYQILNQDNFGLAAELGYDDFGRAKLREAGKPKAKHTNHGAYLSLKGSYEVLDGLDVYGKAGVALVRSDYKFYEDANGTRDHKKGRHTARASGLFAVGAEYAVLPELAVRLEYQWLTRVGKYRPQDKPNTAINYNPWIGCINAGISYRFGQGEAPVVAAPEMVSKTFSLNSDVTFAFGKANLKPQAQATLDSVYGEISQVKSRKVAVAGYTNRIGSDAFNVKLSQERADSVANYFVAKGVAADAISATGYGEANPVTGATCDQVKGRKALIACLAPDRRVEIAVNGTK",–,–,–,–,recognizes a heteroloous fimbrin,recognizes itself,–,–,–,–,–
